The values that follow are results of earlier work, collected in paper PMC7032176 (Asian Journal of Pharmaceutical Sciences, 2018).

The conditions of data set [1]: at 25 °C.

As for `CC(C)(Sc1cc(C(C)(C)C)c(O)c(C(C)(C)C)c1)Sc1cc(C(C)(C)C)c(O)c(C(C)(C)C)c1` [Probucol], the oral bioavailability entry is on record as “up to 6%”. The water solubility entry in data set [1] is listed as “about 5 ng/ml”.
